Data taken from US10821128B2, “Treatment of cancer by systemic administration of Dbait molecules” (ONXEO, priority 2016, dated 2020).

Key:
HT29 [1] = assay: Clonogenic survival assay; assay type: cell-based, human
Procedure: (§1) CRC cell lines; HT29 (mutated p53, ATCC: HTB-38) and HCT116 (wild-type p53, ATCC: CCL-247) were purchased directly from ATCC. These cells were authenticated by ATCC by generating human short tandem repeat profiles by simultaneously amplifying multiple STR loci and amelogenin (for gender determination) using the Promega PowerPlex® Systems. These cells were cultured in the laboratory for less than 6 months from the date of purchase in DMEM medium supplemented with 10% fetal bovine serum, 1% sodium pyruvate, […] (Invitrogen, Carlsbad, Calif.), when the current study was performed. HT29 cell line stably expressing luciferase was established in-house using a pGL4.5 luciferase reporter vector (luc2/CMV/Hygro) (Promega). HT29 luciferase cells were supplemented with 200 μg/ml hygromycin B. All cell lines were additionally subjected to mycoplasma testing in-house and were free of mycoplasma contamination (Biovalley, France).
(§2) Cells were transfected with 2.5 μgs of Dbait (5′-[…]-(H) […]-3′ SEQ ID No 9) (Eurogentec, Belgium) where H is a hexaethyleneglycol linker and underlined nucleotides are phosphorothioates. The cells were sham transfected with an 8 bp oligonucleotide control (8H) complexed with 11 kDa polyethyleneimine (PEI) as previously described (Quantz et al, 2009, PloS one, 4, e6298).
(§3) Cells were transfected with Dbait and left untreated or treated with 5 μM of OXA and 2.5 μM of 5-FU for 1 hr. The cells were diluted, allowed to grow for 14 days and the clones were stained with crystal violet and counted.

HCT116 [2] = assay: Clonogenic survival assay; assay type: cell-based, human
Procedure: as §1, §2, §3

[3] = tested on: pan-nuclear phosphorylation of H2AX in HT29; assay: γH2AX immunofluorescence (DNA-PK activation); assay type: cell-based, human
Procedure: (§4) The inventors have previously shown that Dbait acts by activating DNA-PK kinase, which phosphorylate numerous targets including the histone variant H2AX.
(§5) γH2AX immunofluorescence was performed as described previously using a monoclonal anti-phospho-Histone H2A.X (Ser139) Antibody, clone JBW301 (1:500 dilution; 05-636, Millipore, USA) (9).

[4] = tested on: pan-nuclear phosphorylation of H2AX in HCT116; assay: γH2AX immunofluorescence (DNA-PK activation); assay type: cell-based, human
Procedure: as §4, §5

HT29 [5] = assay: In vitro proliferation assay (live cell counts); assay type: cell-based, human
Procedure: as §1, §2
(§6) Cells were seeded at a density of 3×10^4 cells/60 mm dishes and transfected with Dbait. Following treatment, cells were washed and left untreated or treated with a combination of 5 μM of oxaliplatin (OXA, Sigma) and 2.5 μM of 5-fluouracil (5-FU, Sigma) and live cell counts were performed on days 1, 3, 5, 6, 7 and 9.

HCT116 [6] = assay: In vitro proliferation assay (live cell counts); assay type: cell-based, human
Procedure: as §1, §2, §6

MDA-MB-231 tumor = assay: DT01 with carboplatin in MDA-MB-231 TNBC model; assay type: in vivo, athymic nude mouse; details: carboplatin alone treated group; 177 days of the experiment
Procedure: Treatment was administered in 3 cycles with a 2 week gap between cycles either alone or in association with carboplatin. Only one dose of carboplatin was injected per cycle of DT01 treatment (2nd day of each cycle). The dose of carboplatin was 50 mg/kg per cycle. Treatments were performed over 7 weeks (3 cycles of treatment).
Antitumor activity was evaluated by measuring tumor volume during and after treatment. DT01 was administered intraperitoneally during 3 sessions of 5 days treatment with two weeks of rest between each session. Carboplatin was administered once a week on the second day of each DT01 treatment cycle.
The MDA-MB231 cell line is derived from a human breast adenocarcinoma and can be ordered at the ATCC. The MDA-MB231 cells were grafted in the mammary fat pad with 10·10^6 cells re-suspended in 0.1 ml of DMEM with no additive. The athymic nude mouse is immunodeficient, thus enabling the xenotransplantation and growth of human tumors.

[7] = combination of Dbait with chemotherapy (OXA/5-FU), p=0.05
[8] = single treatment (Dbait alone, or OXA and 5-FU alone)

Row | Compound | clonogenic survival (HT29 [1]; [7]) | clonogenic survival (HT29 [1]; single treatment (Dbait alone, or chemotherapy alone p=0.08)) | lethality (HCT116 [2]; Dbait treatment alone, p<0.01) | clonogenic survival (HCT116 [2]; [7]) | activity by pan-nuclear phosphorylation of H2AX [3] | activity by pan-nuclear phosphorylation of H2AX [4] | cell proliferation (number of living cells) (HT29 [5]; [8]) | level of proliferation compared to chemotherapy alone (HT29 [5]; transfected with Dbait prior to OXA/5-FU, day 9, p<0.02) | cell proliferation (number of living cells) (HCT116 [6]; [8]) | level of proliferation compared to chemotherapy alone (HCT116 [6]; transfected with Dbait prior to OXA/5-FU, day 9, p<0.001) | abnormal death (MDA-MB-231 tumor)
1 | 5′-GCTGTGCCCACAACCCAGCAAACAAGCCTAGA-(H) TCTAGGCTTGTTTGCTGGGTTGTGGGCACAGC-3′ (hexaethyleneglycol linker; phosphorothioates; nucleic acid molecule Id; note=“at the 3′ end of the complementary strand the three last nucleotides with phosphorothioate or methylphosphonate backbone”; modified_base (1)..(3) mod_base= phosphorothioate or methylphosphonate backbone; (1)..(1) at the 5′ end, Lm = carboxamido oligoethylene glycol + C = single or double chain fatty acids, cholesterol, sugars, peptides or proteins; stem_loop (1)..(3) [Dbait] | significant reduction in survival | no significant effect | approximately 30% | significant reduction in survival | confirmed the activity | confirmed the activity | no effect on cell proliferation | significantly reduced | no effect on cell proliferation | significantly reduced | –
2 | N.N.O=C([O-])C1(C(=O)[O-])CCC1.[Pt+2] [carboplatin] | – | – | – | – | – | – | – | – | – | – | one
